Columns and labels:
[1] = system: MRP4 (ABCC4); settings: cited from earlier work
[2] = system: oral mucosa epithelium in vitro model based on human cell line TR146; assay: Transport study across oral mucosa Transwell model, apical to basolateral, 240 min; settings: for Permeability coefficient without inflammation and inhibitor: Table S3; for increase of permeability coefficient with probenecid compared to no inhibitor / increase of permeability coefficient with verapamil compared to no inhibitor / cumulated concentration of NSAID in the basolateral compartment: 100 µM; for cumulated concentration of NSAID in the basolateral compartment: 4 h
Experimental: (§1) As soon as cells reached confluency, cultivation was switched from submerged to airlift and 1% Human Keratinocytes Growth Supplements (HKGS, Gibco, Thermofisher, Vienna, Austria, S0015) was added to the cultivation media on the basolateral compartment. Media were changed every 2–3 days until the day of experiment on day 29. Cells from passage 14–36 were used for experiments. Transepithelial electric resistance (TEER) was measured on day of experiment, as described in detail previously.
(§2) Solutions were diluted to 10 µM (carboxyfluorescein) or 100 µM in DMEM on day of experiments.
(§3) First, TEER was measured in cultivation media on the day of experiment. Afterwards, cells and blanks were washed twice with DMEM on the apical (300 µL) and basolateral (900 µL) compartments and selected cells and blanks were treated with DMEM with or without 100 µM probenecid or verapamil on the apical and basolateral side at 37 °C for 30 min. […] To cells which were pre-incubated with probenecid or verapamil, 100 µM probenecid or verapamil was applied apically as well. DMSO content was adapted for cells with no inhibitors, and DMSO and dd-H2O content was adjusted in the basolateral compartment as well in order to apply the same vehicle concentrations on the apical and basolateral compartment. […] Subsequently, duplicates of apical sample were collected, and samples were frozen at −80 °C until further analysis with High-Performance Liquid Chromatography (HPLC).
(§4) Peaks were quantified using the software Chromeleon Version 7.2.6, and corresponding mili absorbance unit × time [mAU × min] values were used for data analysis.
(§5) Mean values of relative fluorescence unit (RFU) or detected area [mAU × min] were used for calculation. For the first timepoint, the clearance [µL] for the detected area was calculated as shown in the formula below (1a), with Abasot1 as the measured area [mAU × min] at the first time point of the basolateral sample, Vbaso as the basolateral volume [µL] and Astock as the area measured for the applied stock solution. […] Clearance [µL] for carboxyfluorescein was calculated with the same formulas using RFU. (1a) Clearance=Abasot1×Vbaso/AStock (1b) Clearancetn=Abasotn×Vbaso/AStock−∑(Abasotn−1 ×3− Abasot1 ×3)
(§6) Cleared volume [µL] was calculated by plotting the sum of clearance at all time points over time [min]. The resulting slope PS [µL/min] was calculated inversely. For calculation of the PScell, the inverse PS blanks were subtracted, as shown below in Formula (2). (2) 1/PScell=1/PSall−1/PSblank
(§7) The final permeability coefficient is calculated by dividing the inverse PScell by the area of the ThinCerts (0.336 cm^2) and multiplying by a conversion factor to give the permeability coefficient as µm/min.

[3] = as above; settings: human
Experimental: as §1, §2, §3, §4, §5, §6, §7

[4] = CXlogD at pH 7.4 ref https://ebi.ac.uk (02.04.2024); cited from earlier work
[5] = Transport study across blank inserts without cells; settings: mean ± SD
Experimental: as §3, §5, §6

[6] = system: COX-2; set-up: method as in PMID 10866999; settings: human cell lines ref 59; cited from earlier work
[7] = set-up: method as in PMID 15157608; settings: cited from earlier work
[8] = system: COX-2; set-up: method as in PMID 16678543; settings: 48 h post-surgery, compared to the placebo group ref 62; cited from earlier work
[9] = system: ECV304 cell monolayers; settings: cited from earlier work
[10] = system: TR146 cell layers; settings: human, not told, 4 h
[11] = system: TR146 cell layers; assay: Carboxyfluorescein permeability assay (2 h) after 48 h inflammation treatment; assay type: in vitro ADME, human
Experimental: The resulting slope PS [µL/min] was calculated inversely. […] (2) 1/PScell=1/PSall−1/PSblank
ThinCerts® were seeded with cells as described above. Stock solutions of tumour necrosis factor α (TNF-α, Sigma-Alrich, H8916, 10 µg), Interleukin-1ß (IL-1ß, PeproTech, 200-01B, 2 µg) and Interferon-γ (IFN-γ, PeproTech, Vienna, Austria, 300-02, 20 µg) were prepared with Dulbecco’s Phosphate Buffered Saline (DPBS, Thermo-Fisher Scientific, Vienna, Austria, 14190094) containing 0.1% bovine serum albumin (BSA, Roth, Graz, Austria, 8076.2) at a concentration of 10 µg/mL and stored at −20 °C until usage. Three days before the experiments, cell layers and blanks were washed twice on the basolateral compartment with 900 µL cultivation media (DMEM supplemented with 10% Fetal Calf Serum and 1% Penicillin/Streptomycin) to remove anti-inflammatory hydrocortisone residues (a component of media supplement HKGS) and were further cultivated in cultivation media.
Prior to treating cells with prepared DMEM solutions, TEER was measured in cultivation media DMEM supplemented with 1% Penicillin/Streptomycin and 10% Fetal Calf Serum. Subsequently, cell layers and blanks were washed with DMEM (without supplements) twice on the apical and basolateral compartment, followed by TEER measurements in DMEM. Media of cells were replaced with previously prepared DMEM solutions. Control media was applied on the blanks. After 48 h treatment at 37 °C, 5% CO2 and 95% humidity TEER was measured. Subsequently, 10 µM carboxyfluorescein was added to the apical DMEM solutions and incubated in the incubator at 37 °C for 2 h. Media were immediately collected and measured for the RFU content using the EnSpire as described above. Afterwards, media were stored at −20 °C until further usage. Two cell-grown ThinCerts^TM of each treatment were pooled as one sample with 350 µL lysis buffer supplemented with 1% ß-mercaptoethanol and stored at −80 °C for RNA isolation.

[12] = Celexocib study, w/o Inhibitor, mean ± SD
[13] = with 100 µM verapamil, mean ± SEM
[14] = without inhibitor, 100 µM apical (CF 10 µM), mean ± SEM
[15] = Celexocib study, Probenecid, mean ± SD
[16] = Celexocib study, Verapamil, mean ± SD
[17] = Diclofenac study, Probenecid, mean ± SD
[18] = Diclofenac study, Verapamil, mean ± SD
[19] = Diclofenac study, w/o Inhibitor, mean ± SD
[20] = Ibuprofen study, Probenecid, mean ± SD
[21] = Ibuprofen study, Verapamil, mean ± SD
[22] = Ibuprofen study, w/o Inhibitor, mean ± SD
[23] = Piroxicam study, Probenecid, mean ± SD
[24] = Piroxicam study, Verapamil, mean ± SD
[25] = Piroxicam study, w/o Inhibitor, mean ± SD
[26] = with 100 µM probenecid, mean ± SEM

## Cc1ccc(-c2cc(C(F)(F)F)nn2-c2ccc(S(N)(=O)=O)cc2)cc1 [celecoxib]
[1]
  inhibitory effect on MRP4 function: weaker in comparison to ibuprofen
[2]; [12]
  PE (permeability of cell + blank): 0.36 ± 0.15 µm/min
[2]; mean ± SD
  Permeability coefficient without inflammation and inhibitor: 0.44 ± 0.19 µm/min
[2]; human, 240 min
  increase of permeability coefficient with probenecid compared to no inhibitor: 13.63 fold
  increase of permeability coefficient with verapamil compared to no inhibitor: 4.72 fold
[2]; human
  cumulated concentration of NSAID in the basolateral compartment: 0.0071 ± 0.00032 nmol/mm^2
[2]; [13]
  permeability coefficient: 2.10 ± 0.92 µm/min
[2]; [14]
  permeability coefficient: 0.44 ± 0.10 µm/min
[3]; PC (permeability of cell), Celexocib study, w/o Inhibitor, mean ± SD
  Papp A→B at 240 min: 7.33 nm/s
[3]; with probenecid 100 µM, PC (permeability of cell), Celexocib study, Probenecid, mean ± SD
  Papp A→B at 240 min: 101 nm/s
[3]; with probenecid 100 µM, PE (permeability of cell + blank), Celexocib study, Probenecid, mean ± SD
  Papp A→B at 240 min: 27.2 nm/s
[3]; with probenecid 100 µM, permeability coefficient, with 100 µM probenecid, mean ± SEM
  Papp A→B at 240 min, 100 µM: 212 nm/s
[3]; with verapamil 100 µM, PC (permeability of cell), Celexocib study, Verapamil, mean ± SD
  Papp A→B at 240 min: 35 nm/s
[4]
  XlogD: 4.01

## CN1C(=O)CN=C(c2ccccc2)c2cc(Cl)ccc21 [diazepam]
[2]; [15]
  PS all (cell + blank): 0.14 ± 0.004 µL/min
  PS cell: 0.46 ± 0.04 µL/min
[2]; [16]
  PS all (cell + blank): 0.09 ± 0.05 µL/min
  PS cell: 0.41 ± 0.35 µL/min
[2]; [12]
  PS all (cell + blank): 0.11 ± 0.02 µL/min
  PS cell: 0.38 ± 0.19 µL/min
[2]; [17]
  PS all (cell + blank): 0.12 ± 0.01 µL/min
  PS cell: 0.57 ± 0.21 µL/min
[2]; [18]
  PS all (cell + blank): 0.1 ± 0.03 µL/min
  PS cell: 0.68 ± 0.69 µL/min
[2]; [19]
  PS all (cell + blank): 0.11 ± 0.03 µL/min
  PS cell: 0.44 ± 0.35 µL/min
[2]; [20]
  PS all (cell + blank): 0.09 ± 0.02 µL/min
  PS cell: 0.29 ± 0.16 µL/min
[2]; [21]
  PS all (cell + blank): 0.08 ± 0.02 µL/min
  PS cell: 0.39 ± 0.35 µL/min
[2]; [22]
  PS all (cell + blank): 0.12 ± 0.02 µL/min
  PS cell: 0.31 ± 0.08 µL/min
[2]; [23]
  PS all (cell + blank): 0.1 ± 0.01 µL/min
  PS cell: 0.32 ± 0.14 µL/min
[2]; [24]
  PS all (cell + blank): 0.05 ± 0.03 µL/min
  PS cell: 0.24 ± 0.36 µL/min
[2]; [25]
  PS all (cell + blank): 0.12 ± 0.04 µL/min
  PS cell: 0.45 ± 0.24 µL/min
[5]; Diclofenac study, Probenecid
  PS blank: 0.15 ± 0.03 µL/min
[5]; Diclofenac study, Verapamil
  PS blank: 0.13 ± 0.03 µL/min
[5]; Diclofenac study, w/o Inhibitor
  PS blank: 0.17 ± 0.01 µL/min
[5]; Ibuprofen study, Probenecid
  PS blank: 0.14 ± 0.01 µL/min
[5]; Ibuprofen study, Verapamil
  PS blank: 0.12 ± 0.06 µL/min
[5]; Ibuprofen study, w/o Inhibitor
  PS blank: 0.21 ± 0.03 µL/min
[5]; Piroxicam study, Probenecid
  PS blank: 0.12 ± 0.03 µL/min
[5]; Piroxicam study, Verapamil
  PS blank: 0.09 ± 0.02 µL/min
[5]; Piroxicam study, w/o Inhibitor
  PS blank: 0.19 ± 0.02 µL/min
[5]; study, Probenecid
  PS blank: 0.20 ± 0.004 µL/min
[5]; study, Verapamil
  PS blank: 0.13 ± 0.05 µL/min
[5]; study, w/o Inhibitor
  PS blank: 0.18 ± 0.003 µL/min

## O=C(O)Cc1ccccc1Nc1c(Cl)cccc1Cl [diclofenac]
[2]; [19]
  PE (permeability of cell + blank): 2.11 ± 0.22 µm/min
[2]; mean ± SD
  Permeability coefficient without inflammation and inhibitor: 3.64 ± 0.84 µm/min
[2]; human, 240 min
  PE (permeability of cell + blank): 2.98 ± 1.37 µm/min
  increase of permeability coefficient with probenecid compared to no inhibitor: 1.83 fold
[2]; human
  cumulated concentration of NSAID in the basolateral compartment: 0.043 ± 0.0046 nmol/mm^2
[2]; [26]
  permeability coefficient: 6.66 ± 1.87 µm/min
[2]; [13]
  permeability coefficient: 3.54 ± 0.38 µm/min
[2]; [14]
  permeability coefficient: 3.64 ± 0.34 µm/min
[3]; PC (permeability of cell)
  Papp A→B at 240 min: 111 nm/s
[3]; PE (permeability of cell + blank)
  Papp A→B at 240 min: 34.3 nm/s
[4]
  XlogD: 1.1

## O=C(O)c1ccccc1Nc1cccc(C(F)(F)F)c1 [flufenamic acid]
[6]
  COX-2 expression: NF-κB-independent upregulation of COX-2

## C[C@]12CCC(=O)C=C1CC[C@@H]1[C@@H]2[C@@H](O)C[C@@]2(C)[C@H]1CC[C@]2(O)C(=O)CO [hydrocortisone]
[7]
  biological half-life: 8–12 h

## CN1C(C(=O)Nc2ccccn2)=C(O)c2ccccc2S1(=O)=O [piroxicam]
[1]
  inhibitory effect on MRP4 function: weaker in comparison to ibuprofen
[2]; [25]
  PE (permeability of cell + blank): 2.44 ± 0.76 µm/min
[2]; mean ± SD
  Permeability coefficient without inflammation and inhibitor: 4.86 ± 2.41 µm/min
[2]; human, 240 min
  increase of permeability coefficient with probenecid compared to no inhibitor: 1.19 fold
  increase of permeability coefficient with verapamil compared to no inhibitor: 1.23 fold
[2]; human
  cumulated concentration of NSAID in the basolateral compartment: 0.055 ± 0.016 nmol/mm^2
[2]; [26]
  permeability coefficient: 5.81 ± 0.61 µm/min
[2]; [13]
  permeability coefficient: 6.00 ± 0.70 µm/min
[2]; [14]
  permeability coefficient: 4.86 ± 0.84 µm/min
[3]; PC (permeability of cell), Piroxicam study, w/o Inhibitor, mean ± SD
  Papp A→B at 240 min: 81 nm/s
[3]; with probenecid 100 µM, PC (permeability of cell), Piroxicam study, Probenecid, mean ± SD
  Papp A→B at 240 min: 96.8 nm/s
[3]; with probenecid 100 µM, PE (permeability of cell + blank), Piroxicam study, Probenecid, mean ± SD
  Papp A→B at 240 min: 45.2 nm/s
[3]; with verapamil 100 µM, PC (permeability of cell), Piroxicam study, Verapamil, mean ± SD
  Papp A→B at 240 min: 100 nm/s
[3]; with verapamil 100 µM, PE (permeability of cell + blank), Piroxicam study, Verapamil, mean ± SD
  Papp A→B at 240 min: 51.2 nm/s

## CS(=O)(=O)c1ccc(C2=C(c3ccccc3)C(=O)OC2)cc1 [rofecoxib]
[8]
  COX-2 expression in the oral mucosa: induced COX-2 expression

## carboxyfluorescein [CF]
[9]
  permeability coefficient across ECV304 cell monolayers: ~ 5 µm/min
[2]; human, 240 min
  permeability coefficient: 4.63 ± 0.24 µm/min
[10]
  permeability coefficient: 14.26 ± 7.14 µm/min
[11]; across cells treated with cytokines 48 h, two hours
  permeability coefficient for CF: 16.16 ± 13.05 µm/min
[11]; across cells treated with cytokines with ibuprofen 48 h, two hours
  permeability coefficient for CF: 16.75 ± 9.76 µm/min
[11]; across cells treated with ibuprofen 48 h, two hours
  permeability coefficient for CF: 12.83 ± 3.57 µm/min
[11]; across control cells, two hours after 48 h
  permeability coefficient for CF: 12.41 ± 5.15 µm/min
